Measurements published in patent US5326869A (priority 1991, dated 1994).

Target: A2 Adenosine receptor (Rattus norvegicus, UniProt P30543)
Experiment: biochemical
Procedure: The membrane preparation is obtained as follows: Frozen pellets of PC12 cells are washed twice with ice cold, buffered, physiological saline and the cells recovered by centrifugation (1500 G) at 3° C. The separated cells are then suspended in hypotonic solution (distilled water), allowed to stand on ice for 30 minutes and are then carefully homogenized using a standard high-speed homogeniser with periodic ice-cooling to obtain a fine suspension. […] The mixture is then incubated at 37° C. After 20 minutes, the reaction is terminated by dilution with ice-cold buffer and transfer onto ice. The material obtained containing the cell membranes is recovered by centrifugation and washed by resuspension in buffer and recentrifugation. The pellet produced is then resuspended in ice-cold buffer using a hand-driven homogenizer. The resultant membrane suspension is frozen and stored under liquid nitrogen until required.
After incubation, the samples are rapidly filtered over glass-fibre mats and the filter mats are washed to remove non-receptor-bound radioligand. Receptor-bound radioligand entrapped on the filter mats is then determined by liquid scintillation counting. […] The specific binding (defined as the difference between the total binding and the non-specific binding) in the presence of the particular test compound is determined and compared with the control value.

Sequence of A2 Adenosine receptor (P30543 whole entry): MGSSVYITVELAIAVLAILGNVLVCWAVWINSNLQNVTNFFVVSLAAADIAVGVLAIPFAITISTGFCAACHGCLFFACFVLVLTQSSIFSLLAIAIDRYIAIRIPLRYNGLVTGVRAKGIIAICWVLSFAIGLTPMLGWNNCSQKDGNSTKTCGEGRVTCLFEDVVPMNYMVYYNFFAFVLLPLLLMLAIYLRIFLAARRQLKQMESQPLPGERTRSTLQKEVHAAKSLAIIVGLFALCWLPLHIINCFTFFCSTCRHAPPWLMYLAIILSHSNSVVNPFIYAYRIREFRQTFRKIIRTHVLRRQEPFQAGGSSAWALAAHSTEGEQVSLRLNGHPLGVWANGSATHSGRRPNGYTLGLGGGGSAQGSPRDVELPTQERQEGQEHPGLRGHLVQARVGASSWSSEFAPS

IC50: ~10 nM
Compound: Nc1nc(Oc2ccccc2)nc2nc(-c3ccco3)nn12 [Example 2, 7-amino-2-(2-furyl)-5-phenoxy[1,2,4]triazolo[1,5-a][1,3,5]triazine]
